Results as given in article PMC6445123 (Scientific Reports, 2019).

How the values were obtained:
Casp6 = biological target: T1, Casp6 (Homo sapiens, UniProt P55212, INS179NQTEKLDTNITEVD); experiment: Reversibility of Casp6 inhibition (pre-incubation at 10-fold IC50, rapid 100-fold dilution); type: biochemical; conditions: recovery of activity after 60 min pre-incubation and 100-fold dilution
T1 construct: generating mainly large subunit with a linker (LS-L), small subunit (SS), and a minor amount of large subunit (LS); His (C); made in house; host or cells: E. coli BL21(DE3)pLysS
T1 sequence (P55212 24-193 limits assumed): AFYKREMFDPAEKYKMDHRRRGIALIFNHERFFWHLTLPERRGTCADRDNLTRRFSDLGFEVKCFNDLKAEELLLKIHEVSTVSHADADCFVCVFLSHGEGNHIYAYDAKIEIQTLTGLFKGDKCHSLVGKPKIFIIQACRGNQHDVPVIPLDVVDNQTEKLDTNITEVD
T1 sequence (P55212 194-293 limits assumed): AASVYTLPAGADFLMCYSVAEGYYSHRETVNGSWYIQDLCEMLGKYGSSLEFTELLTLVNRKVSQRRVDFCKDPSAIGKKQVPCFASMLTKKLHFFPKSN
Procedure: Supplementary Figure S5. Mechanism of Casp6 inhibition with C13 and S10G. (a) Inhibition of Casp6 with C13 (left panel) and S10G (right panel) is reversible. The recovery of Casp6 activity after 60 min pre-incubation with C13 and S10G at a concentration of inhibitor equal to 10-fold the IC50 value followed by a rapid 100-fold […]
(1 picture or pasted object on this page, not shown here) […]
dilution into Casp6 activity assay solution. The control samples DMSO and Q-VD-OPh were pre-incubated and diluted in the absence of inhibitor, and in the presence of an irreversible inhibitor Q-VD-OPh, respectively. Data points represent mean ± standard error of the mean (SEM) from three independent experiments. (b) Coomassie stain of SDS-PAGE of purified recombinant WT -, L200A-, and K284A-Casp6 (left panel) expressed from a full -length Casp6 encoding construct (Fig. 1c ), and copurified LS and SS of WT -, L200A-, and K284A-LS-SS-Casp6 (right panel). FL (full-length Casp6), ΔCasp6 (Casp6 without a prodomain), LS-L (large subunit with linker), LS (large subunit), and SS (small subunit) depict different bands of Casp6. (c) Michaelis-Menten kinetic plots (top panel) and calculated KM and Vmax values (bottom panel) for Casp6-WT-LS-SS (left panel), Casp6-L200A-LS-SS (middle panel), and Casp6-K284A-LS-SS (right panel) enzymatic activity in presence of 1% DMSO (0 µM C13) or increasing doses of C13. […]

recombinant active Casp6 = biological target: T2, recombinant active Casp6 (Homo sapiens, UniProt P55212, INS179NQTEKLDTNITEVD); experiment: Colorimetric Ac-VEID-pNA cleavage assay; type: biochemical; conditions: 100 µM compound, 200 µM Ac-VEID-pNA, 200 nM Casp6
T2 construct: generating mainly large subunit with a linker (LS-L), small subunit (SS), and a minor amount of large subunit (LS); His (C); made in house; host or cells: E. coli BL21(DE3)pLysS
T2 sequence (P55212 24-193 limits assumed): T1 sequence (P55212 24-193 limits assumed)
T2 sequence (P55212 194-293 limits assumed): T1 sequence (P55212 194-293 limits assumed)
Procedure: To assess the potency of in silico hits, a fluorescence-based Ac-VEID-AFC cleavage assay was used to measure recombinant active Casp6 reaction rate in the absence or presence of 100 µM concentration of compounds. A 30% inhibition cut off was arbitrarily chosen for further investigation of putative inhibitors. […] AFC signal interference by compound intrinsic fluorescence was ruled out (Fig. S4). Casp6 inhibition was confirmed for seven compounds (C7, C13, C14, S2, S10, S11 and S13) using a colorimetric Ac-VEID-pNA cleavage assay (Table 2, Fig. S3).
In fluorescence-based Casp6 activity assay, 10 µM Ac-VEID-AFC was added to 20 nM Casp6 in SB with 100 μM compound and 1% dimethyl sulfoxide (DMSO), and reaction rate was measured for 20 min at 37 °C as above. Compound potency was calculated by normalising Ac-VEID-AFC cleavage rate to 1% DMSO control. In colorimetric Casp6 activity assay, 200 µM Ac-VEID-pNA (N-acetyl-Val-Glu-Ile-Asp-p-nitroanilide, Enzo Life Sciences) was added to 200 nM Casp6 in SB with 100 μM compound, and Ac-VEID-pNA cleavage rate was measured at 37 °C for 30 min in clear 96-well plate (Sartstedt, Nümbrecht, Germany) using Synergy H4 plate reader at 405 nm. Absorbance was converted to the released pNA amount based on a standard curve of 0–250 µM pNA. Cleavage rates were calculated from the linear assay phase and were normalised to 1% DMSO control. In Casp6-C163A cleavage assay, 0.5 ng/µl Casp6-WT was preincubated with 100 µM inhibitor, 5 µM Q-VD-OPh or 1% DMSO in SB (30 min, RT), followed by transfer on ice, addition of 0.5 µg/µl Casp6-C163A, and incubation (37 °C, 5, 10 and 15 min). Reactions were stopped by adding SDS-PAGE sample buffer (62.5 mM Tris pH 6.8, 2% SDS, 0.1 M DTT, 0.01% Bromphenol Blue, 10% glycerol) and heating (5 min, 95 °C). Samples (2 µl) were analysed on 15% SDS-PAGE gels, proteins were stained with Coomassie blue, and gels were de-stained with 10% acetic acid. The intensities of protein bands were quantified from scanned gels using ImageJ. The band intensity of Casp6-C163A without a prodomain was plotted against the time and the Casp6-C163A cleavage rates were calculated from the slopes of linear plots. The % activity of Casp6-WT in the presence of inhibitors was calculated relative to DMSO control.

reversibility of Casp6 inhibition (Casp6): reversible | inhibition at 100 µM (recombinant active Casp6): 86.7%
SMILES: COC(=O)c1cc(CNC(=O)C2Cc3ccccc3O2)cc(NC(=O)c2ccco2)c1 (centres unmarked) [Compound C13]
